Measurements published in US6413975B1, “Purine derivatives having phosphodiesterase iv inhibition activity” (Euro-Celtique, S.A., priority 1999, dated 2002).
Structures can show the parent of a compound that is named as a salt. Where two headings read alike, the source gives them in different places.

Columns and labels:
[1] = test system: Type IV PDE; assay: PDE IV inhibition: hydrolysis of [3H]-cyclic AMP by isolated Type IV PDE; type: biochemical, bovine
Protocol: The Type IV PDE is isolated from bovine tracheal smooth muscle using a procedure similar to that previously described by Silver, P. J., Hamel, L. T., Perrone, M. H. Bentley, R. G. Bushover, C. R., Evans, D. B.: Eur. J. Pharmacol. 150:85,1988.(1). Briefly, smooth muscle from bovine trachea is minced and homogenized using a polytron in 10 volumes of an extraction buffer containinhg 10 mM Tris-acetate (pH 7.5), 2 mM magnesium chloride, 1 mM dithiothreitol and 2,000 units/ml of aprotinin. This and all subsequent procedures are performed at 0-4° C. The homogenate is sonicated and then centrifiged at 48,000×g for 30 minutes. The resulting supernatant is applied to a DEAE Trisacryl M column previously equilibrated with sodium acetate and dithiothreitol. After applications of the sample, the column is washed with sodium acetate/dithiothreitol, after which the different forms of PDE are eluted from the column using a linear Tris-HCl/NaCl gradient. Fractions containing Type IV PDE are collected, dialyzed and concentrated to 14% of the original volume. The concentrated fractions are diluted to 50% with ethylene glycol and stored at -20° C.
Enzyme activity is assessed by measuring the hydrolysis of [^3H]-cyclic AMP, as described by Thompson, W. J., Teraski, W. L., Epstein, P. N., Strada, S. J.: Adv. Cyclic Nucleotide Res. 10:69, 1979. The cyclic AMP concentration used in this assay is 0.2 μM, which approximates the Km value. Protein concentration is adjusted to ensure that no more than 15% of the available substrate is hydrolyzed during the incubation period.
All test compounds are dissolved in dimethyl sulfoxide (final concentration of 2.5%). This concentration of dimethyl sulfoxide inhibits enzyme activity by approximately 10%.

[2] = test system: ovalbumin-sensitized guinea pigs (eosinophils in BAL); assay: Ovalbumin sensitization and challenge in guinea pigs, differential cell counts in bronchoalveolar lavage; type: in vivo, guinea pig; conditions: 5 mg/kg ip one hour prior to ovalbumin challenge; for % Eosinophils in BAL x ± se: BAL 24 hours after aerosol exposure; for % Inhibition: eosinophils in BAL versus vehicle
Protocol: (i) The effect of test compounds in a model of bronchial hyperresponsiveness (BHR) and cellular infiltration in the guinea pig induced by ovalbumin (see, for example Morley et al, Agents and Actions, Supplement, 1988, 23, 187) were studied.
(ii) Sensitization and Challenge procedure: Male Dunkin Hartley guine pigs (Charles River) (200-250 g) were injected i.p. with ovalbumin (OVA) (0.5 ml/animal; 20 μg OVA in AlOH)3 (moist gel)); this preparation produced an injectable stable suspension containing excess Al(OH)3. Sham animals were injected with 0.5 ml Al(OH)3 alone. After a period of 18-21 days animals were exposed to an aerosol of OVA (100 μg/ml) for 1 hour in an exposure chamber.
(iii) Bronchoalveloar lavage: Animals were anaesthetized, 24 hours after aerosol exposure, with urethane (25%, w/v, 7 ml/kg, i.p.) and the trachea cannulated. Bronchoalveo-lar lavage (BAL) was performed by instilling 5 ml sterile saline into the lungs via the tracheal cannula and the fluid was immediately removed. The fluid was reinjected and the procedure repeated 5 times in total. […] Total cell counts were perfomed on the resultant BAL fluid using an improved Neubauer haemocytometer. Cytospin preparations were prepared using a Shandon Cytospin 2 centrifuge. Two drops of BAL fluid were added to each cytospin cup and the samples were centrifuged for 1 min at 1300 r.p.m. Slides were fixed in acetone and stained with haemotoxylin and carbol chromotrope according to the method described by Lendrum (Lendrum 1944), differential cell counts were performed on each slide by counting 200 cells at random, the cell types were classified as neutrophils, eosinophils and mononuclear cells according to standard morphological criteria. Cells were counted blind. The results are expressed as the number of neutrophils, eosinophils and mononuclear cells per ml of BAL fluid. The remaining BAL fluid was centrifuged (10 min., 1000 g) and the resultant cells and cell free supernatants were aliquotted and frozen for later assays. Compounds were solu-bilized in either DMSO or saline administered intraperitoreally at a dose of 5 mg/kg one hour prior to ovalbumin challenge.

[3] = test system: Guinea pig isolated trachealis muscle; assay: Isolated guinea pig trachea: relaxation of airways muscle; type: cell-based; conditions: compared with theophylline as standard (= 1); cumulative concentration effect curves
Protocol: The test compound was dissolved in dimethylsulfoxide. Guinea pig isolated trachealis muscle was mounted in a bath containing Krebs solution maintained at 37.5° C. and bubbled with carbogen (95% 02, 5% CO2).
Tension changes were recorded isometrically using force displacement transducers in conjunction with potentiometric pen recorders.
The ability of the test compounds to relax airways muscle was investigated by the construction of cumulative concentration effect curves. Each concentration of the test compound was allowed to equilibrate with the tissue for 5 minutes before a concentration increment (ten-fold) was made.
In each tissue the test compound was compared with theophylline as standard.

[4] = dithioxanthines, Table 5, read-out: IC50 PDE IV
[5] = adenines, Table 4, cyclic AMP 0.2 μM, read-out: calc PDE IV IC50
[6] = adenines, Table 7, read-out: calc PDE IV IC50
[7] = thioisoguanines, Table 2, cyclic AMP 0.2 μM, read-out: Calc IC50 PDE IV

With `COc1ccc(Cn2cnc(N)c3nc(C(C)(C)OCc4ccc(F)cc4)nc2-3)cc1OC` (as salt: hydrochloride) [6-Amino-3-(3,4-dimethoxybenzyl)-8-(1-(4-fluorobenzyloxy-1-methyl-ethyl)-3H-purine Hydrochloride] the melting point was 172 to 175 °C.

Work on `CCCCCCn1cnc(NCC)c2ncnc1-2` (as salt: hydrochloride) [6-Ethylamino-3-hexyl-3H-purine] yielded a melting point of 190 to 195 °C.

With `CCNc1ncn(Cc2ccc(OC)c(OC3CCCC3)c2)c2nc(C(C)C)nc1-2.Cl` [3-(3-Cyclopentyloxy-4-methoxybenzyl)-6-ethylamino-8-isopropyl-3H-purine Hydrochloride] the IC50 ([1]; read-out: PDE IV I50) was 0.32 µM, the “% Eosinophils in BAL x ± se” value [2] was 12 ± 2% and the “% Inhibition” value [2] was 64%.

With `COc1ccc(Cn2c(=S)[nH]c(=S)c3[nH]c(C(C)C)nc32)cc1OC1CCCC1` [3-(3-cyclopentyloxy-4-methoxybenzyl)-3,7-dihydro-8-isopropyl-2,6-dithio-1H-purine-2,6-dione] the IC50 [1, 4] was 0.6 µM, the IC50 ([1]; read-out: PDE IV I50) was 0.8 µM and the “% Eosinophils in BAL x ± se” value [2] was 17 ± 3%. For the same compound, the “% Inhibition” value [2] was 47%.

Compound `CCNc1ncn(Cc2ccc(Cl)cc2)c2ncnc1-2.Cl` [3-(4-chlorobenzyl)-6-ethylamino-3H-purine hydrochloride] has a melting point of 251 to 254 °C and an IC50 [1, 5] of 37.8 µM.

`CCNc1ncn(Cc2ccc(Cl)cc2)c2nc(C(C)C)nc1-2` [3-(4-chlorobenzyl)-6-ethylamino-8-isopropyl-3H-purine] gave a melting point of 215 to 217 °C and an IC50 ([1]; read-out: PDE IV I50) of 1.13 µM.

For `CCNc1ncn(Cc2ccccc2)c2ncnc1-2` [3-Benzyl-6-ethylamino-3H-purine], the melting point was 187 to 188 °C and the “In Vitro Activity” value [3] was 18.5.

For `COc1ccc(Cn2cnc(N)c3nc(C(C)(C)OCc4ccc(F)cc4)nc2-3)cc1OC1CCCC1.Cl` [6-Amino-3-(3-cyclopentyloxy-4-methoxy-benzyl)-8-(1-(4-fluorobenzyloxy)-1-methyl-ethyl)-3H-purine hydrochloride], the melting point was 165 to 174 °C and the IC50 [1, 6] was 0.034 µM.

For `COc1ccc(Cn2cnc(N)c3nc(C(C)(C)OCc4ccccc4)nc2-3)cc1OC1CCCC1.Cl` [6-Amino-8-(1-benzyloxy-1-methyl-ethyl)-3-(3-cyclopentyloxy-4-methoxy-benzyl)-3H-purine Hydrochloride], the melting point was 201 to 203 °C and the IC50 [1, 6] was 0.005 µM.

In the case of `CCCCCCn1cnc(NCC)c2ncnc1-2` [6-Ethylamino-3-hexyl-3H-purine], the “In Vitro Activity” value [3] is reported as 25.6.

With `CCNc1ncn(Cc2ccc(OC)cc2)c2nc(C(C)C)nc1-2` [6-ethylamino-8-isopropyl-3-(4-methoxybenzyl)-3H-purine] the IC50 [1, 6] was 1.2 µM.

Work on `CCNc1ncn(Cc2ccc(OC)c(OCCCCO)c2)c2nc(C(C)C)nc1-2` [6-ethylamino-8-isopropyl-3-[(4-methoxy-3-(4-hydroxybutoxy))benzyl]-3H-purine] yielded an IC50 [1, 6] of 1.75 µM.

With `CCNc1ncn(Cc2ccc(OC)c(OC3CCCC3)c2)c2nc(C(C)(C)OCc3ccccc3)nc1-2.Cl` [8-(1-Benzyloxy-1-methyl-ethyl)-3-(3-cyclopentyloxy-4-methoxy-benzyl)-6-ethylamino-3H-purine Hydrochloride] the melting point was 148 to 150 °C and the IC50 [1, 6] was 0.85 µM.

`CCNc1ncn(CC)c2nc(Cc3ccc(OC)c(OC4CCCC4)c3)nc1-2` [8-(3-Cyclopentyloxy-4-methoxybenzyl)-3-ethyl-6-ethylamino-3H-purine Hydrochloride] gave an IC50 [1, 5] of 4.52 µM.

With `CCNc1ncn(CC)c2nc(C3CC3)nc1-2` [8-Cyclopropyl-3-ethyl-6-ethylamino-3H-purine] the “In Vitro Activity” value [3] was 43.7 and the IC50 [1, 6] was 27.1 µM.

`CCn1c(=S)c2[nH]c(C3CC3)nc2n(CC)c1=S` [8-cyclopropyl-3,7-dihydro-1,3-diethyl-2,6-dithio-1H-purin-2,6-dione] showed an IC50 ([1]; read-out: PDE IV I50) of 0.42 µM.

For `CC(C)CCn1c(=S)[nH]c(=S)c2[nH]c(C3CC3)nc21` [8-cyclopropyl-3,7-dihydro-3-(3-methylbutyl)-2,6-dithio-1H-purine-2,6-dione], the IC50 [1, 4] was 6.31 µM.

Compound `CCn1c(=S)[nH]c(=S)c2[nH]c(C3CC3)nc21` [8-cyclopropyl-3,7-dihydro-3-ethyl-2,6-dithio-1H-purine-2,6-dione] has an IC50 [1, 4] of 6.18 µM.

`CCCn1c(=S)[nH]c(=S)c2[nH]c(C3CC3)nc21` [8-cyclopropyl-3,7-dihydro-3-propyl-2,6-dithio-1H-purine-2,6-dione] gave an IC50 [1, 4] of 64.5 µM.

Work on `CCCn1c(=S)nc(NCc2ccncc2)c2[nH]c(C3CC3)nc21` [8-cyclopropyl-3,7-dihydro-3-propyl-6-(4-pyridyl-methylamino)-2-thio-2H-purin-2-one] yielded an IC50 ([1]; read-out: PDE IV I50) of 0.41 µM.

Work on `CCCn1c(=S)nc(NCCO)c2[nH]c(C3CC3)nc21` [8-cyclopropyl-3,7-dihydro-6-(2-hydroxyethylamino)-3-propyl-2-thio-2H-purin-2-one] yielded an IC50 ([1]; read-out: PDE IV I50) of 4.48 µM and an IC50 [1, 7] of 53.8 µM.

Compound `S=c1[nH]c(=S)n(CC2CC2)c2nc(C3CC3)[nH]c12` [8-cyclopropyl-3-cyclopropylmethyl-3,7-dihydro-2,6-dithio-1H-purine-2,6-dione] has an IC50 [1, 4] of 2.27 µM.

For `CCNc1ncn(CC2CC2)c2nc(C3CC3)nc1-2` [8-cyclopropyl-3-cyclopropylmethyl-6-ethylamino-3H-purine hydrochloride], the IC50 [1, 5] was 4.11 µM.

With `CCNc1nc(=S)n(CC)c2nc(C3CC3)[nH]c12` [8-cyclopropyl-3-ethyl-6-ethylamino-3,7-dihydro-2-thio-2H-purin-2-one] the IC50 [1, 7] was 13.7 µM.

For `CCCNc1nc(=S)n(CC)c2nc(C3CC3)[nH]c12` [8-cyclopropyl-3-ethyl-6-propylamino-2-thio-2H-purin-2-one], the IC50 [1, 7] was 8.48 µM.

Work on `CCCNc1ncn(CC)c2nc(C3CC3)nc1-2` [8-cyclopropyl-3-ethyl-6-propylamino-3H-purine hydrochloride] yielded an IC50 [1, 5] of 15.7 µM.

For `CCCn1cnc(NC2CC2)c2nc(C3CC3)nc1-2` [8-cyclopropyl-6-cyclopropylamino-3-propyl-3H-purine hydrochloride], the IC50 [1, 5] was 7.9 µM.

In the case of `CCNc1ncn(CCC(C)C)c2nc(C3CC3)nc1-2.Cl` [8-cyclopropyl-6-ethylamino-3-(3-methylbutyl)-3H-purine hydrochloride], the IC50 [1, 5] is reported as 2.45 µM, the “% Eosinophils in BAL x ± se” value [2] is reported as 16 ± 4% and the “% Inhibition” value [2] is reported as 52%.

`CCCn1cnc(NCC)c2nc(C3CC3)nc1-2` [8-cyclopropyl-6-ethylamino-3-propyl-3H-purine hydrochloride] showed an IC50 [1, 5] of 6.31 µM.

For `Cn1c(=O)c2[nH]cnc2n(C)c1=O` [Theophylline, reference compound], the “In Vitro Activity” value [3] was 1.
